Source: patent US11530226B2, “Azepane inhibitors of menin-MLL interaction” (Janssen Pharmaceutica NV, priority 2016, dated 2022)
“And” between values parts separate entries of the source, which are not always exact repeats. Identical values can stand only once. Counter-ions that a name gives are not always drawn. Like-named read-outs stand apart in the source and are kept apart here.

Columns and labels:
[1] = system: MOLM14 cells (MLL-AF9); experiment: Proliferation assay (spheroid-like growth, 8 d, live-cell imaging), MOLM14; assay type: cell-based, human; settings: Homo sapiens, MOLM-14, 192 h, absolute IC50 from AUC of confluence, read-out: (3) Spheroid assay MOLM14 (IC50 (μM))
Description: (§1) The anti-proliferative effect of menin/MLL protein/protein interaction inhibitor test compounds was assessed in human leukemia cell lines. The cell lines MV-4-1 1 and MOLM14 harbor MEL translocations and express the MEL fusion proteins MLL-AF4 and MLL-AF9, respectively, as well as the wildtype protein from the second allele. […] K562 was used as a control cell line containing two MLL wildtype alleles in order to exclude compounds that display general cytotoxic effects.
(§2) MV-4-1 1 and MOLM14 were cultured in RPMI-1640 (Sigma Aldrich) supplemented with 10% fetal bovine serum (HyClone), 2 mM L-glutamine (Sigma Aldrich) and 50 μg/ml gentamycin (Gibco). K562 were propagated in RPMI-1640 (Sigma Aldrich) supplemented with 20% fetal bovine serum (HyClone), 2 mM L-glutamine (Sigma Aldrich) and 50 μg/ml gentamycin (Gibco).
(§3) In order to assess the anti-proliferative effects, 1,500 MV-4-1 1, 300 MOLM14 or 750 K562 cells were seeded in 200 μl media per well in 96-well round bottom, ultra-low attachment plates (Costar, catalogue number 7007). Cell seeding numbers were chosen based on growth curves to ensure linear growth throughout the experiment. Test compounds were added at different concentrations and the DMSO content was normalized to 0.3%>. Cells were incubated for 8d at 37° C. and 5% C02. Spheroid like growth was monitored in real-time by live-cell imaging (IncuCyteZOOM, Essenbio, 4× objective) acquiring one image every four hours for 8d. Confluence (%) as a measure of spheroid size was determined using an integrated analysis tool.
(§4) In order to determine the cumulative effect of the test compounds over time, the area under the curve (AUC) in a plot of confluence against time was calculated. Confluence at the beginning of the experiment (t=0) was used as baseline for the AUC calculation.
(§5) Absolute IC50 values were calculated according to the following procedure: % Control=(AUC sample/AUC control)*100 AUC control=mean AUC of control values(cells without compound/DMSO as vehicle control)
(§6) A non-linear curve fit was applied using the least squares (ordinary) fit method to the plot of % control versus compound concentration. Based on this, the absolute IC50 value (half maximal inhibitory concentration of the test compound causing an anti-proliferative effect of 50% relative to the vehicle control) was calculated.

[2] = system: MV-4-1 1 cells (MLL-AF4); experiment: Proliferation assay (spheroid-like growth, 8 d, live-cell imaging), MV-4-11; assay type: cell-based, human; settings: MV-4-11 cells, absolute IC50 from AUC of confluence, read-out: (3) Spheroid assay MV-4-11 (IC50 (μM))
Description: as §1, §2, §3, §4, §5, §6

[3] = biological target: T1, terbium chelate-labeled menin / FITC-MBM1 peptide (Menin/MLL) (Homo sapiens, UniProt O00255, T541A); experiment: Menin/MLL homogenous time-resolved fluorescence (HTRF) assay; assay type: binding; settings: read-out: (2) Menin HTRF assay (IC50 (nM))
T1 construct: Menin (a. a. l-610-6×his tag) was labeled with terbium cryptate as follows
T1 sequence (O00255 with tags, fused parts or gaps T541A): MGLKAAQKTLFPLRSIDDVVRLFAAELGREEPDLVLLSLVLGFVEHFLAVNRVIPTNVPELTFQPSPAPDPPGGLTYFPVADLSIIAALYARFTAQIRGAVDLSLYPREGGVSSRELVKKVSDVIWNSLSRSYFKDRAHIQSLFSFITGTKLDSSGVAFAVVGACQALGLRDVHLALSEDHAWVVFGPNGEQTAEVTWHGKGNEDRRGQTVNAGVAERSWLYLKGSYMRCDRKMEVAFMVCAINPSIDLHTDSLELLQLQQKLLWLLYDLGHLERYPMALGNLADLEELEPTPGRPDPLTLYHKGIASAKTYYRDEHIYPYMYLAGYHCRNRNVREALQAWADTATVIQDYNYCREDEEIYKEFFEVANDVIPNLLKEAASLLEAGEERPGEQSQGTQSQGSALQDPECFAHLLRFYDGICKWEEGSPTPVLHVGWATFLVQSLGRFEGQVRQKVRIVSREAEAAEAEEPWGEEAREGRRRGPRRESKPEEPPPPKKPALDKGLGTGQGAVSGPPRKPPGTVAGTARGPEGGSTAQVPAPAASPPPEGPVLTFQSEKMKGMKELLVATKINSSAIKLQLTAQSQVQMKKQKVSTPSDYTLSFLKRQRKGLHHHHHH
Description: 2) Menin/MLL Homogenous Time-Resolved Fluorescence (HTRF) Assay
To an untreated, white 384-well microtiter plate was added 40 nL 200× test compound in DMSO and 4 μL 2× terbium chelate-labeled menin (vide infra for preparation) in assay buffer (40 mM Tris .HCl, pH 7.5, 50 mM NaCl, 1 mM DTT and 0.05% Pluronic F-127). After incubation of test compound and terbium chelate-labeled menin for 5 min at ambient temperature, 4 μL 2×FITC-MBM1 peptide (FITC-P-alanine-SARWRFPARPGT-NH2) in assay buffer was added, the microtiter plate centrifuged at 1000 rpm for 1 min and the assay mixtures incubated for 15 min at ambient temperature. The relative amount of menin ⋅FITC-MBM1 complex present in an assay mixture is determined by measuring the homogenous time-resolved fluorescence (HTRF) of the terbium/FITC donor/acceptor fluorphore pair using a BMG Pherastar plate reader (ex. 337 nm/terbium cm. 490 nm/FITC cm. 520 nm) at ambient temperature. The degree of fluorescence resonance energy transfer (the HTRF value) is expressed as the ratio of the fluorescence emission intensities of the FITC and terbium fluorophores (P^m 520 nm//F^em 490 nm). The final concentrations of reagents in the binding assay are 100 pM terbium chelate-labeled menin, 75 nM FITC-MBM1 peptide and 0.5%) DMSO in assay buffer. Dose-response titrations of test compounds are conducted using an 11 point, three-fold serial dilution scheme, starting typically at 25 μM.
Compound potencies were determined by first calculating % inhibition at each compound concentration according to equation 1: % inhibition=((HC−LC)−(HTRF^compound−LC))/(HC−LC))*100 (Eqn 1)
Where LC and HC are the HTRF values of the assay in the presence or absence of a saturating concentration of a compound that competes with FITC-MBM1 for binding to menin, and HTRF^compound is the measured HTRF value in the presence of the test compound. HC and LC HTRF values represent an average of at least 16 replicates per plate.
Where Bottom and Top are the lower and upper asymptotes of the dose-response curve, respectively, IC50 is the concentration of compound that yields 50% inhibition of signal and h is the Hill coefficient.
Preparation of Terbium cryptate labeling of Menin: Menin (a. a. l-610-6×his tag) was labeled with terbium cryptate as follows. 2 mg of Menin was buffer exchanged into 1× phosphate buffered saline. 16 uM Menin was incubated with 4-fold molar excess NHS-terbium cryptate (Cisbio Bioassays, Bedford, Mass.) for 2 hours at room temperature. The labeled protein was purified away from free label by running the reaction over a Superdex 200 Increase 10/300 GL column at 0.75 ml/min. Peak fractions were collected, aliquoted and frozen at −80° C.

SMILES | IC50 [3] [nM] | melting point | also measured
CC1CCN(c2ncnc3sc(CC(F)(F)F)cc23)CCC1NCc1ccccc1 (stereo not drawn) [Compound 68C] | 282 |  | IC50 [1]: 7.7 µM; IC50 ([2]; Homo sapiens, MV4-11, 192 h): 4.4 µM
CC1CN(c2ncnc3sc(CC(F)(F)F)cc23)CCCC1NCc1ccccc1 (stereo not drawn) [Compound 67A] | 396 | 164 °C | IC50 ([2]; Homo sapiens, MV4-11, 192 h): 3.6 µM
CC1CN(c2ncnc3sc(CC(F)(F)F)cc23)CCCC1NCc1ccccc1 (stereo not drawn) [Compound 67B] | 348 | 180 °C | IC50 [2]: 3.7 µM
CN(C)CCCNC1CCCN(c2ncnc3sc(CC(F)(F)F)cc23)CC1 (stereo not drawn) (as salt: hydrochloride) [Compound 62] |  | 130 °C | 
Cc1ccc(CNC2CCCN(c3ncnc4sc(CC(F)(F)F)cc34)CC2)cc1 (stereo not drawn) (as salt: HCl) [Compound 16] |  | 262 to 264 °C | 
CC(C)[C@@H](N[C@@H]1CCCN(c2ncnc3sc(CC(F)(F)F)cc23)CC1)C1CNC1 (single isomer, unassigned) (as salt: hydrochloride) [Compound 35] |  | 193 °C | 
O=C(NC1CCCN(c2ncnc3sc(CC(F)(F)F)cc23)CC1)C1CC2(CC2)CN1 (stereo not drawn) (as salt: hydrochloride) [Compound 10B] |  | 205 °C | 
O=C(NC1CCCN(c2ncnc3sc(CC(F)(F)F)cc23)CC1)C1CC2(CC2)CN1 (stereo not drawn) [Compound 10B] | 1320 |  | IC50 [1]: 14.2 µM; IC50 ([2]; Homo sapiens, MV4-11, 192 h): 5 µM
C[C@H](N[C@@H]1CCCN(c2ncnc3sc(CC(F)(F)F)cc23)CC1)c1cnn(C)c1 (single isomer, unassigned) (as salt: HCl) [Compound 54B] |  | 160 °C | 
CC(C)[C@H](NC1CCCN(c2ncnc3sc(CC(F)(F)F)cc23)CC1)C1CNC1 (single isomer, unassigned) (as salt: hydrochloride) [Compound 33] |  | 200 °C | 
CN(C)CCN(Cc1ccccc1)[C@@H]1CCCN(c2ncnc3sc(CC(F)(F)F)cc23)CC1 (single isomer, unassigned) (as salt: hydrochloride) [Compound 57A] |  | 150 °C | 
CC(C)[C@@H](N[C@H]1CCCN(c2ncnc3sc(CC(F)(F)F)cc23)CC1)C1CNC1 (single isomer, unassigned) (as salt: hydrochloride) [Compound 36] |  | 208 °C | 
Cc1ccc(CN[C@@H]2CCCN(c3ncnc4sc(CC(F)(F)F)cc34)CC2)c(C)c1 (single isomer, unassigned) (as salt: hydrochloride) [Compound 9A] |  | 156 °C | 
COc1ccccc1CNC1CCCN(c2ncnc3sc(CC(F)(F)F)cc23)CC1 (stereo not drawn) [Compound 22] | 78 |  | IC50 [1]: 9.9 µM; IC50 ([2]; Homo sapiens, MV4-11, 192 h): 2.5 µM
FC(F)(F)Cc1cc2c(N3CCCC(Oc4ccccc4)CC3)ncnc2s1 (stereo not drawn) [Compound 15] | 606 | 110 °C | 
FC(F)(F)Cc1cc2c(N3CCC[C@H](NCc4ccccc4)CC3)ncnc2s1 (as salt: HCl) [Compound 4, (S)-N-benzyl-1-(6-(2,2,2-trifluoroethyl)thieno[2,3-d]pyrimidin-4-yl)azepan-4-amine] |  | 230 °C | 
C[C@@H](N[C@H]1CCCN(c2ncnc3sc(CC(F)(F)F)cc23)CC1)c1cnn(C)c1 (single isomer, unassigned) (as salt: HCl) [Compound 54D] |  | 160 °C | 
Cc1cccc(CNC2CCCN(c3ncnc4sc(CC(F)(F)F)cc34)CC2)c1 (stereo not drawn) [Compound 23] | 150 |  | IC50 [1]: 9.4 µM; IC50 ([2]; Homo sapiens, MV4-11, 192 h): 3.1 µM
CC(C)[C@@H](NC1CCCN(c2ncnc3sc(CC(F)(F)F)cc23)CC1)C1CNC1 (single isomer, unassigned) (as salt: hydrochloride) [Compound 34] |  | 188 °C | 
Cc1ccc(CNC2CCCN(c3ncnc4sc(CC(F)(F)F)cc34)CC2)cc1 (stereo not drawn) [Compound 16] | 21 |  | IC50 [1]: 4.9 µM; IC50 ([2]; Homo sapiens, MV4-11, 192 h): 0.8 µM
OCc1ccccc1CNC1CCCN(c2ncnc3sc(CC(F)(F)F)cc23)CC1 (stereo not drawn) [Compound 21] | 97 |  | IC50 [1]: 6.1 µM; IC50 ([2]; Homo sapiens, MV4-11, 192 h): 1 µM
Cc1ccc(CN[C@H]2CCCN(c3ncnc4sc(CC(F)(F)F)cc34)CC2)c(C)c1 (single isomer, unassigned) (as salt: hydrochloride) [Compound 9B] |  | 160 °C | 
CC(C)NC1CCCN(c2ncnc3sc(CC(F)(F)F)cc23)CC1 (stereo not drawn) [Compound 12] | 5790 | 94 °C | 
FC(F)(F)Cc1cc2c(N3CCCC(N4Cc5ccccc5C4)CC3)ncnc2s1 (stereo not drawn) [Compound 6] | 60 | 111 °C and 111.41 °C | IC50 ([2]; Homo sapiens, MV4-11, 192 h): 2.2 µM
FC(F)(F)Cc1cc2c(N3CCCC(NCC4CCOCC4)CC3)ncnc2s1 (stereo not drawn) (as salt: hydrochloride) [Compound 55] |  | 110 °C | 
FC(F)CN[C@@H]1CCCN(c2ncnc3sc(CC(F)(F)F)cc23)CC1 (as salt: hydrochloride) [Compound 5] |  | 244 °C | 
C[C@@H]1CCN(c2ncnc3sc(CC(F)(F)F)cc23)CC[C@@H]1NCc1ccccc1 (single isomer, unassigned) (as salt: hydrochloride) [Compound 68B] |  | 150 °C | 
C[C@@H](N[C@@H]1CCCN(c2ncnc3sc(CC(F)(F)F)cc23)CC1)c1cnn(C)c1 (single isomer, unassigned) (as salt: HCl) [Compound 54A] |  | 160 °C | 
